# Laboratory results as given in patent US20260000669A1, “TREATMENT REGIMEN FOR AUTOIMMUNE DISEASES AND INFLAMMATORY DISEASES” (Merck Patent GmbH, priority 2022, published 2026).
# Like-named read-outs stand apart in the source and are kept apart here.
# Assays:
# [1] = mouse model of SLE, orally administered; cited from earlier work
# SARS-CoV-2 [2] = test system: SARS-CoV-2
# Source text: The clinical study NCT02975349 is a phase II, randomized, placebo-controlled trial to evaluate the safety and efficacy of evobrutinib (M2951) in subjects with relapsing multiple sclerosis (RMS). […] The study was composed of a screening period of 4 weeks, a double blinded treatment period of 48 weeks, with an optional open-label extension (OLE) period of 312 weeks, and a safety follow-up period of 4 weeks post-treatment.
# Patients were randomized 1:1:1:1: to receive placebo, oral evobrutinib 25 mg once-daily (QD), 75 mg QD, 75 mg twice-daily (BID), or open-label dimethyl fumarate. Patients who received placebo during the first 24 weeks of the DBP, were switched to evobrutinib 25 mg QD until the end of the double-blind period (i.e., 48 weeks). Patients participating in the OLE after the DBP received EVO 75 mg QD and then, after a mean of 49.8 weeks, switched to EVO 75 mg BID.
# For the analysis of pre-vaccination, post-vaccination and post-booster vaccination S1/S2 IgG antibody levels, plasma samples were selected according to the following criteria: • Pre-vaccination: sample taken at the last doctor's visit of the patient before the date when the first COVID-19 vaccine dose was administered • post-vaccination: sample taken at the first doctor's visit of the patient that took place at least 28 days after a complete vaccination cycle (as defined by the manufacturer) was administered (for example, in case of the mRNA COVID vaccine of VAC-OLE I, at least 28 days after the date when the second dose of the mRNA COVID vaccine was administered) • post-booster vaccination: sample taken in the first doctor's visit of the patients that took place at least 7 days after the date when the booster vaccination was administered
# A total of 24 patients, fulfilling the following criteria, were included in the analysis and constituted the VAC-OLE I analysis set: • Subjects who were in the OLE and received evobrutinib 75 mg BID, and • had 2 doses of mRNA vaccine against COVID reported as concomitant medication, and • signed the Informed Consent for the vaccination analysis.
# Subjects were administered the two doses of vaccine during the course of the study based on investigator's judgement. Of the 24 vaccinated patients: • 20 received the mRNA vaccine by BioNTech/Pfizer • 4 patients received the mRNA vaccine by Moderna.
# SARS-CoV-2 antibody levels were determined using the LIAISON® SARS-CoV-2 S1/S2 IgG assay (DiaSorin, Inc); an indirect sandwich chemiluminescent immunoassay that qualitatively detects IgG antibodies to SARS-CoV-2. […] Briefly, magnetic particles coated with recombinant S1 and S2 SARS-CoV-2 proteins were incubated with patients' plasma samples, calibrator samples or control samples. After washing away unbound material, a mouse monoclonal anti-human IgG antibody linked to an isoluminol derivative was added. Following another incubation and wash step, the starter reagents were added triggering a flash chemiluminescence reaction. The resulting light signal, representative of the amount of bound isoluminol-antibody conjugate, was measured by a photo multiplier as relative light units (RLU) and was indicative of the presence of IgG S1/S2 antibodies to SARS-CoV-2 virus. Test results are assessed qualitatively as positive or negative. The lower limit of quantification (LLoQ) in this assay was 3.8 AU/mL. In line with FDA guidance, values below a cutoff of 15 AU/mL (i.e. about 4× above the LLoQ for the assay) were considered as a negative readout.
# The primary endpoint of this study was defined as fold changes in levels of S1/S2 IgG antibodies from pre- to post-vaccination.
# [3] = mouse model of RA, orally administered; cited from earlier work
# [4] = relapsing MS patients; cited from earlier work
# SARS-CoV-2 [5] = type: in vivo, human
# SARS-CoV-2 [6] = settings: MS patients, 2 to 4 weeks after second dose of mRNA COVID-19 vaccine; cited from earlier work
# [7] = overall VAC-OLE I population (N=24), evobrutinib 75 mg BID
# [8] = seronegative subgroup (19 patients), VAC-OLE I
# [9] = seropositive subgroup (5 patients), VAC-OLE I
# [10] = all participants (N=45), VAC-OLE II, evobrutinib 75 mg BID
# [11] = booster subgroup (N=14), mRNA booster, VAC-OLE II
# [12] = participants that received mRNA vaccines (37), VAC-OLE II
# [13] = participants that received non-mRNA vaccines (8), VAC-OLE II
# [14] = seronegative subgroup (N=32), VAC-OLE II
# [15] = seropositive subgroup (N=13), VAC-OLE II
compound,measurement,setting,value
"C=CC(=O)N1CCC(CNc2ncnc(N)c2-c2ccc(Oc3ccccc3)cc2)CC1 [evobrutinib, 1-[4-({[6-amino-5-(4-phenoxyphenyl)pyrimidin-4-yl]amino}methyl)piperidin-1-yl]prop-2-en-1-one]",efficacy (reduction of disease severity and histological damage),[1],good efficacy
same,"S1/S2 IgG antibody level, geometric mean, after second vaccination",SARS-CoV-2 [2]; [7],209.1 AU/mL
same,"S1/S2 IgG antibody level, geometric mean, before first vaccination",SARS-CoV-2 [2]; [7],6.7 AU/mL
same,"S1/S2 IgG antibody level post-vaccination, geometric mean","SARS-CoV-2 [2]; sample collected >12 weeks after second vaccination, VAC-OLE I",74
same,"S1/S2 IgG antibody level post-vaccination, geometric mean","SARS-CoV-2 [2]; sample collected between 8 and 12 weeks after second dose, VAC-OLE I",264
same,"S1/S2 IgG antibody level post-vaccination, geometric mean","SARS-CoV-2 [2]; sample collected less or equal to 8 weeks after second vaccination, VAC-OLE I",383 AU/mL
same,geometric mean fold change of S1/S2 IgG antibody levels,"SARS-CoV-2 [2]; seronegative patients, VAC-OLE I",36.0
same,"S1/S2 IgG antibody level prior to vaccination (majority of patients, lower limit of quantification)",SARS-CoV-2 [2]; [8],around 3.8 AU/ml
same,"S1/S2 IgG antibody level, geometric mean post-vaccination",SARS-CoV-2 [2]; [8],155.8 AU/mL
same,geometric mean fold change of S1/S2 IgG antibody levels,"SARS-CoV-2 [2]; seropositive patients, VAC-OLE I",18.0
same,"S1/S2 IgG antibody level, geometric mean after the second vaccination",SARS-CoV-2 [2]; [9],639.6 AU/mL
same,"S1/S2 IgG antibody level, geometric mean pre-vaccination",SARS-CoV-2 [2]; [9],35.5 AU/mL
same,efficacy (reduction of disease severity and histological damage),[3],good efficacy
same,results in RMS phase II trials,[4],positive results
same,participants with >30-fold induction of S1/S2 IgG antibody levels,"SARS-CoV-2 [5]; 21 of 45 participants, VAC-OLE II",47%
same,participants with >10-fold increase of S1/S2 IgG antibody levels,"SARS-CoV-2 [5]; 38 of 45 participants, VAC-OLE II",84%
same,S1/S2 IgG antibody geometric mean post-vaccination,"SARS-CoV-2 [5]; <8 weeks subgroup, VAC-OLE II",672 AU/mL
same,participants with >30-fold change in antibody levels after vaccination,"SARS-CoV-2 [5]; >8 and ≤12 weeks subgroup (7 of 19), VAC-OLE II",37%
same,S1/S2 IgG antibody geometric mean post-vaccination,"SARS-CoV-2 [5]; >8 week to ≤12 weeks subgroup, VAC-OLE II",166 AU/mL
same,participants with >30-fold change in antibody levels after vaccination,"SARS-CoV-2 [5]; >12 weeks group (2/13), VAC-OLE II",15%
same,S1/S2 IgG antibody geometric mean post-vaccination,"SARS-CoV-2 [5]; >12 weeks subgroup, VAC-OLE II",142 AU/mL
same,fold increase in anti-COVID-19 antibody levels pre- to post-vaccination,"SARS-CoV-2 [5]; all participants (N=45), VAC-OLE II",45 fold
same,"S1/S2 IgG antibody level after a complete vaccination cycle, geometric mean",SARS-CoV-2 [5]; [10],237.8 AU/mL
same,"S1/S2 IgG antibody level pre-vaccination, geometric mean",SARS-CoV-2 [5]; [10],9.0 AU/mL
same,fold change in the geometric mean of S1/S2 IgG antibody,"SARS-CoV-2 [5]; assessed >8 week to ≤12 weeks after complete vaccination cycle, VAC-OLE II",17.7
same,fold change in the geometric mean of S1/S2 IgG antibody,"SARS-CoV-2 [5]; assessed >12 weeks after complete vaccination cycle, VAC-OLE II",17.8
same,fold change in the geometric mean of S1/S2 IgG antibody,"SARS-CoV-2 [5]; assessed ≤8 weeks after complete vaccination cycle, VAC-OLE II",69.7
same,S1/S2 IgG antibody levels after booster vaccination compared to levels after the complete vaccination cycle,"SARS-CoV-2 [5]; booster subgroup (N=14), VAC-OLE II",Higher
same,geometric mean fold change from post-vaccination to post-booster,SARS-CoV-2 [5]; [11],6.3
same,geometric mean fold change from pre-vaccination to post-booster,SARS-CoV-2 [5]; [11],214
same,response to COVID vaccination compared with individuals not under BTK inhibitor treatment,"SARS-CoV-2 [5]; conclusion of Example 2, comparison with published data",comparably to healthy individuals
same,post-vaccination S1/S2 IgG antibody geometric mean,SARS-CoV-2 [5]; [12],247.7 AU/mL
same,pre-vaccination S1/S2 IgG antibody geometric mean,SARS-CoV-2 [5]; [12],8.5 AU/mL
same,post-vaccination S1/S2 IgG antibody geometric mean,SARS-CoV-2 [5]; [13],197.1 AU/mL
same,pre-vaccination S1/S2 IgG antibody geometric mean,SARS-CoV-2 [5]; [13],12.1 AU/mL
same,S1/S2 IgG antibody post-vaccination geometric mean level,SARS-CoV-2 [5]; [14],133.6 AU/mL
same,"S1/S2 IgG antibody values prior to vaccination (majority of participants, lower limit of quantification)",SARS-CoV-2 [5]; [14],3.8 AU/mL
same,S1/S2 IgG antibody geometric mean level after a complete vaccination cycle,SARS-CoV-2 [5]; [15],984.4 AU/mL
same,S1/S2 IgG antibody pre-vaccination geometric mean level,SARS-CoV-2 [5]; [15],55.5 AU/mL
"C=CC(=O)N1CCC[C@@H](n2c(=O)n(-c3ccc(Oc4ccccc4)cc3)c3c(N)nccc32)C1 [tolebrutinib, reference compound]",results in RMS phase II trials,[4],positive results
ocrelizumab: B and/or T cell receptor directed antibody; a disease modifying treatment for multiple sclerosis,S1/S2 IgG antibody levels,SARS-CoV-2 [6],very low
